Results taken from patent EP4653523A1, “CULTURE MEDIUM, PRODUCTION METHOD, AND CELL PREPARATION” (National University Corporation Kumamoto University, priority 2023, dated 2024).

How the values were obtained:
[1] = system: EPCR High cell group; assay: Ex vivo culture of mouse EPCR High cell group for 4 days, flow cytometry and cell count; assay type: cell-based; details: cultured for 4 days, vs control
Text: The expression of c-kit and EPCR in a hematopoietic stem cell fraction (lineage: CD150+, CD48-) isolated from a mouse by using flow cytometry was checked. Among the c-kit-positive and EPCR-positive cells, a cell group of the top 30% of the EPCR-positive cells was defined as an EPCR High cell group, and a cell group of the bottom 30% of the EPCR-positive cells was defined as an EPCR Low cell group (see FIG. 1). Each cell group was transplanted into a recipient mouse, and 20 weeks later, the proportion of cells derived from the transplanted stem cells was examined in the peripheral blood (PB). In addition, at the same time, the proportion of cells derived from the transplanted stem cells was examined in the hematopoietic stem cell fraction ([…]) in the bone marrow after 20 weeks of the transplantation. The experiment was carried out twice. […] The culture medium used for the ex vivo culture of the untreated hematopoietic stem cells isolated from the mouse is a culture medium obtained by adding, to the RPMI medium, L-Alanin (4.45mg/L), Zinc Sulfate Heptahydrate (0.432mg/L), Cupric Sulfate Pentahydrate (0.0013mg/L), Ferric Nitrate Nonahydrate (0.05mg/L), Ferrous Sulfate Heptahydrate (0.417mg/L), Linoleic acid (0.042mg/L), Hypoxanthine (2.1mg/L), Putrescine + 2HCL (0.081mg/L), Thioctic Acid (0.105mg/L), Thymidine (0.365mg/L), Sodium Pyruvate (55mg/L), HEPES (1mM), a penicillin-streptomycin mixed solution (Nacalai Tesque, Inc.: 26253-84) (1/100 capacity), Insulin-Transferrin-Selenium-Ethanolamine (Thermo Fisher Scientific, Inc.: 51500056) (1/100 capacity), and AlbuMAXtm I Lipid-Rich BSA (Thermo Fisher Scientific, Inc.: 11020021) (2%). As shown in FIG. 5(A), α-ketoglutaric acid (αKG), which is an intermediate metabolite of the TCA cycle, is also produced from glutamic acid or the like, and then it is supplied to the TCA cycle. In addition, in the production of α-ketoglutaric acid from glutamic acid, two pathways of a transaminase pathway and a glutamate dehydrogenase pathway are used (see FIG. 5(B)). Therefore, the proportion of EPCR High in hematopoietic stem cells was determined in a case where the EPCR High cell group was cultured for 4 days by adding each of an inhibitor […] (30 μM) of glutamate dehydrogenase and an inhibitor aminooxyacetic acid (AOA) (50 μM) of transaminase to the culture medium, and in a case where the content of […] in the culture medium, which is the source of glutamic acid synthesis, was set to 1/100 (0.02 mM) in FIG. 5(A) (Low Neu.). […] As a result, in a case of culturing in the presence of […], the number of cells having the EPCR High phenotype is increased by about 2 times in the culture for 4 days, as compared with the culture under the normal culture conditions. […]

[2] = system: recipient mouse; assay: Transplantation of cultured cell groups into recipient mouse, proportion of donor-derived cells; assay type: in vivo
Procedure: Mouse EPCR High cells were cultured for 4 days under the normal culture conditions or in the presence of R162, and 50 cells of each of an EPCR High cell group (Control) generated under the normal culture conditions, an EPCR Low cell group (Control), and an EPCR High cell group (R162) amplified in the presence of R162 were aliquoted and then transplanted into a recipient mouse. Then, after 4 weeks and 12 weeks, the proportion of cells derived from donor cells in the peripheral blood was examined.
Further, the EPCR High cells were cultured for 4 days under the normal culture conditions and cultured for 4 days in the presence of R162, and the EPCR High cell group generated under the normal culture conditions, the EPCR Low cell group, and the EPCR High cell group (R162) amplified in the presence of R162 were each transplanted into a recipient mouse. Then, 20 weeks later, the proportion of cells derived from donor cells was examined in the peripheral blood and the hematopoietic stem cell fraction in the bone marrow (L-ESLAM (BM)).

[3] = system: EPCR High cell group; assay: Gene expression pattern analysis by RNA-sequence with principal component analysis; assay type: cell-based, mouse; details: 4d gEPCR-High (R162) compared with 4d gEPCR-High, cultured for 4 days
[4] = system: EPCR High cell group; assay: Chromatin status by open chromatin region analysis (ATAC-sequence) with principal component analysis; assay type: cell-based, mouse; details: 4d gEPCR-High (R162) compared with 4d gEPCR-High, cultured for 4 days
Procedure: In the same manner, the chromatin status of each cell group was analyzed by open chromatin region analysis (ATAC-sequence).

[5] = system: Human CD34^+ bone marrow cells; assay: Culture of human CD34+ bone marrow cells for 7 days, total cell count and flow cytometry; assay type: cell-based
Procedure: Human CD34^+ bone marrow cells (10,000 cells) were cultured for 7 days under normal culture conditions or in the presence of a glutamate dehydrogenase inhibitor R162 (30 µM), and then the total number of cells was analyzed. Then, the proportion of hematopoietic stem cells (lineage: CD34+ CD38- CD90+ cells) was analyzed using a flow cytometer, and from the results, the number of stem cells was estimated. FIG. 13 and FIG. 14 show the results. As shown in FIG. 14(A), it has been confirmed that the total number of cells is not changed by the presence of R162 as compared with the control, whereas as shown in FIG. 14(B), the ratio of stem cells after culturing is increased by the presence of R162.
The culture medium used for the ex vivo culture of human CD34+ bone marrow cells is a culture medium obtained by adding, to the RPMI medium, L-Alanin (4.45mg/L), Zinc Sulfate Heptahydrate (0.432mg/L), Cupric Sulfate Pentahydrate (0.0013mg/L), Ferric Nitrate Nonahydrate (0.05mg/L), Ferrous Sulfate Heptahydrate (0.417mg/L), Linoleic acid (0.042mg/L), Hypoxanthine (2.1mg/L), Putrescine + 2HCL (0.081mg/L), Thioctic Acid (0.105mg/L), Thymidine (0.365mg/L), Sodium Pyruvate (55mg/L), HEPES (1mM), a penicillin-streptomycin mixed solution (Nacalai Tesque, Inc.: 26253-84) (1/100 capacity), Insulin-Transferrin-Selenium-Ethanolamine (Thermo Fisher Scientific, Inc.: 51500056) (1/100 capacity), and AlbuMAXtm I Lipid-Rich BSA (Thermo Fisher Scientific, Inc.: 11020021) (2%).

SMILES: O=C(O[C@@H]1Cc2c(O)cc(O)cc2O[C@@H]1c1cc(O)c(O)c(O)c1)c1cc(O)c(O)c(O)c1 [EGCG, epigallo catechin-3-gallate]
- proportion of EPCR-positive cells (phenotype of EPCR High) ([1]; EGCG 50 µM in culture medium): phenotype of EPCR High is maintained

SMILES: NOCC(=O)O [AOA, aminooxyacetic acid]
- number of cells ([1]; AOA 50 µM): significantly reduced as compared with the control

SMILES: C=CCc1ccc2c(c1O)C(=O)c1ccccc1C2=O [R162, 2-allyl-1-hydroxy-9,10-anthraquinone]
- proportion of EPCR High in hematopoietic stem cells ([1]; R162 30 µM in culture medium): phenotype of EPCR High is maintained
- number of cells ([1]; R162 30 µM): about the same level as that of the control
- proportion of cells derived from donor cells in the peripheral blood ([2]; 50 cells of EPCR High cell group amplified 4 days in the presence of R162, transplanted, after 4 weeks and 12 weeks): high ability to reconstruct hematopoietic tissue, which is equivalent to the EPCR High cell group (Control)
- proportion of cells derived from donor cells in the peripheral blood and the hematopoietic stem cell fraction in the bone marrow (L-ESLAM (BM)) ([2]; EPCR High cell group amplified 4 days in the presence of R162, transplanted, 20 weeks later): high ability to maintain the reconstructed hematopoiesis for a longer period of time
- gene expression pattern [3]: extremely similar gene expression patterns
- chromatin status (chromatin accessibility of cis-element regions) [4]: extremely similar gene expression patterns even in the chromatin status
- total number of cells ([5]; R162 30 µM, 10,000 cells cultured for 7 days, vs control): not changed
- number of stem cells ([5]; R162 30 µM, cultured for 7 days, estimated from total cell number and proportion, vs normal culture conditions): the number of stem cells is increased
- ratio of stem cells after culturing (CD34+ CD38- CD90+ cells) ([5]; R162 30 µM, cultured for 7 days, vs control): increased
